# Assay results as given in patent US20250161338A1, “Compounds for Anti-aging Intervention” (AGENCY FOR SCIENCE, TECHNOLOGY AND RESEARCH, priority 2022, published 2025).
# Where a name gives a salt, the structure may show the parent alone.
# How the values were obtained:
# [1] = test system: prototrophic yeast strain (CEN.PK113-7D); test: Yeast outgrowth in YPD liquid medium (CLS of aged cells); type: cell-based, Saccharomyces cerevisiae; details: concentration tested 100 μM; OD600 nm after 24 h in YPD at 30° C.; age point day 14
# Experimental: (§1) CLS experiments were performed in 96-well plates with 200 μL yeast culture. Cellular inoculums were transferred into 96-well plates containing serially double-diluted concentrations (0 to 10 nM) of rapamycin. Cellular inoculum was transferred into 96-well plates containing serially double-diluted concentrations (0 to 8 mM) of 2,5-anhydro-D-mannitol, D-fructose, D-mannitol, D-maltose, and D-sorbitol in SD medium. Cells were incubated at 30° C., and the growth was measured at different time points. […] Cell survival was quantified at various age time points by three different approaches: (i) PI fluorescence-based method, (ii) outgrowth in YPD liquid medium, and (iii) spotting assay (FIG. 1).
# Outgrowth (OD600) of aged cells was measured by the microplate reader. Quantification of cell survival for each age point was determined as relative to Day 1 (considered 100% cell survival). This quantification was performed by using the formula,
# [formula] • where OutgrowthDay n refers to the OD600 nm absorbance reading recorded on a specific day, OutgrowthDay 1 refers to the OD600 nm absorbance reading recorded on the first day where 100% cell survival is assumed.
# The CLS of the aged cells was further determined by the yeast outgrowth in YPD liquid medium method as described above. […] At chronological age point day 14, 3-μL of culture were transferred to a second 96-well plate containing 200 μL YPD medium.
# [2] = test system: prototrophic yeast strain (CEN.PK113-7D); test: Propidium iodide fluorescence-based CLS method in yeast (incl. high-throughput screening); type: cell-based, Saccharomyces cerevisiae; details: concentration tested 100 μM; for Yeast CLS increase: Yes/No call of the screen; for PI intensity: solvent DMSO or water, chronological age point Day 7 (72 h growth = Day 1), lower = more survival;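 for PI intensity: untreated reference is eight DMSO and water control wells per plate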
# Experimental: Yeast strain was recovered from frozen glycerol stock at 30° C. on YPD agar medium. Yeast was left to propagate in SD medium overnight at 30° C. with shaking at 220 revolutions per minute (rpm). Cells propagated overnight were diluted to a starting optical density at 600 nm (OD600) of approximately 0.2 in fresh SD medium to begin the chronological lifespan (CLS) experiments.
# as §1
# Yeast cells (40 μL) from different age time points were transferred into a second 96-well plate (different to the 96-well plate in which the CLS analysis as outlined above was performed). Cells were washed and incubated in 100 μL 1×phosphate buffered saline (PBS) with propidium iodide (PI) (5 μg/mL) for 15 minutes in the dark. Positive and negative control samples were included for quantitative analysis. Positive control (cells boiled at 100° C. for 15 minutes) was PI-stained and processed in the same 96-well plate. Samples without PI-stained cells served as the negative control. After incubation, cells were washed and resuspended in 100 μL PBS. The fluorescence reading of the samples (excitation and emission wavelengths at 535 nm and 617 nm, respectively) and OD600 were measured with a microplate reader (BioTek, Winooski, Vermont, United States). The fluorescence intensity of each sample was normalized with OD600. The background fluorescence signal of the unstained negative sample was subtracted from the normalized fluorescence intensity of each sample. The obtained fluorescence intensity of the positive control (boiled dead cells) was considered 0% cell survival. Cell death was validated by allowing the boiled dead cells to grow in medium. Cell survival at different age time points of samples were calculated by normalizing the fluorescence intensity with positive control sample (boiled cells).
# High-throughput screening of various chemicals was tested using the same protocol for the propidium iodide fluorescence-based method as described above. The prototrophic yeast strain (CEN.PK113-7D) was grown in the synthetic defined medium with different chemical reagents at their respective single testing concentration (Table 1) in addition to eight replicates of DMSO and water controls in 96-well plates at 30° C.
Structure (SMILES),Outgrowth [1],Yeast CLS increase [2],PI intensity [2]
O=C(O)c1ccc2c(c1)C(=O)c1ccccc1C2=O [Anthraquinone-2-carboxylic acid],0.1,No,"96,099.2"
OCC1=C[C@@H](O)[C@@H]2C=CO[C@@H](O[C@@H]3O[C@H](CO)[C@@H](O)[C@H](O)[C@H]3O)[C@H]12 [Aucubin],0.1,No,"58,414.0"
"NC(=O)[C@@H]1CC[C@@H]2CN1C(=O)N2OS(=O)(=O)O [Avibactam (sodium), reference compound]",0.1,No,"73,562.3"
O=c1c(O[C@@H]2O[C@H](CO)[C@@H](O)[C@H](O)[C@H]2O[C@@H]2O[C@H](CO)[C@@H](O)[C@H](O)[C@H]2O)c(-c2ccc(O)c(O)c2)oc2cc(O)cc(O)c12 [Baimaside],0.2,No,"61,895.7"
CC(=O)OCc1ccccc1 [Benzyl acetate],0.1,No,"74,321.9"
"C[C@@H](O)[C@H]1C(=O)N2C(C(=O)[O-])=C(SC3Cn4cnc[n+]4C3)[C@H](C)[C@H]12 (stereo partly drawn) [Biapenem, reference compound]",0.1,No,"71,409.3"
"OC(CCN1CCCCC1)(c1ccccc1)C1CC2C=CC1C2 (stereo not drawn) [Biperiden (Hydrochloride), reference compound]",0.2,No,"67,178.1"
O=[N+]([O-])C(Br)(CO)CO [Bronopol],0.1,No,"79,284.9"
"C=C1CC[C@H](O)C/C1=C/C=C1\CCC[C@]2(C)[C@@H]([C@H](C)CCCC(C)(C)O)CC[C@@H]12 [Calcifediol, reference compound]",0.2,No,"60,747.4"
"CSCCNc1nc(SCCC(F)(F)F)nc2c1ncn2[C@@H]1O[C@H](COP(=O)([O-])OP(=O)([O-])C(Cl)(Cl)P(=O)([O-])[O-])[C@@H](O)[C@H]1O.[Na+].[Na+].[Na+].[Na+] [Cangrelor (tetrasodium), reference compound]",0.1,No,"83,173.6"
"C[C@]12CCC(=O)C=C1C=C[C@@H]1[C@@H]2CC[C@@]2(C)[C@H]1CC[C@@]21CCC(=O)O1 [Canrenone, reference compound]",0.1,No,"64,295.2"
"CC1=C(C(=O)O)N2C(=O)[C@@H](NC(=O)[C@H](N)c3ccc(O)cc3)[C@H]2SC1 [Cefadroxil, reference compound]",0.1,No,"70,326.1"
"CO/N=C(\C(=O)N[C@@H]1C(=O)N2C(C(=O)O)=C(Cn3ccc(=N)n3CCO)CS[C@H]12)c1csc(N)n1.O=S(=O)(O)O [Cefoselis (sulfate), reference compound]",0.1,No,"70,425.6"
"COCc1c(C(C)C)nc(C(C)C)c(/C=C/[C@@H](O)C[C@@H](O)CC(=O)[O-])c1-c1ccc(F)cc1.[Na+] [Cerivastatin (sodium), reference compound]",0.1,No,"64,250.5"
O=C(/C=C/c1ccc(O)c(O)c1)O[C@@H]1C[C@](O)(C(=O)O)C[C@@H](O)[C@H]1O [Chlorogenic acid],0.1,No,"66,593.5"
"CC1(C)C[C@@H]1C(=O)N/C(=C\CCCCSC[C@H](N)C(=O)O)C(=O)O [Cilastatin, reference compound]",0.1,No,"55,728.9"
O=C(O)C=Cc1ccccc1 [Cinnamic acid],0.1,No,"60,256.3"
COc1cc2oc(-c3ccc(O)cc3)cc(=O)c2c(O)c1OC [Cirsimaritin],0.1,No,"85,017.1"
O=C(/C=C/c1ccc(O)c(O)c1)O[C@H]1[C@H](O)C[C@](O)(C(=O)O)C[C@H]1O [Cryptochlorogenic acid],0.1,No,"65,040.0"
OC[C@H]1O[C@@H](Oc2cc3c(O)cc(O)cc3[o+]c2-c2ccc(O)c(O)c2)[C@H](O)[C@@H](O)[C@H]1O.[Cl-] [Cyanidin-3-O-galactoside (chloride)],0.1,No,"63,761.1"
OC[C@H]1O[C@@H](O[C@H]2[C@H](O)[C@@H](O)[C@H](O)O[C@@H]2CO)[C@H](O)[C@@H](O)[C@@H]1O [D-(+)-Cellobiose],0.1,No,"69,857.4"
O=C[C@H](O)[C@@H](O)[C@H](O)[C@H](O)C(=O)O [D-Glucuronic acid],0.1,No,"48,839.6"
C[C@@H]1CC[C@@]2(OC1)O[C@H]1C[C@H]3[C@@H]4CC=C5C[C@@H](O[C@@H]6O[C@H](CO)[C@@H](O[C@@H]7O[C@H](CO)[C@@H](O)[C@H](O)[C@H]7O)[C@H](O)[C@H]6O[C@@H]6O[C@@H](C)[C@H](O)[C@@H](O)[C@H]6O)CC[C@]5(C)[C@H]4CC[C@]3(C)[C@H]1[C@@H]2C [Deltonin],0.1,No,"62,357.6"
"O=C(O)Cc1ccccc1Nc1c(Cl)cccc1Cl [Diclofenac (Sodium), reference compound]",0.2,No,"79,704.3"
"CC(=O)OCC(=O)[C@@]1(OC(C)=O)[C@@H](C)C[C@H]2[C@@H]3C[C@H](F)C4=CC(=O)C=C[C@]4(C)[C@@]3(F)[C@@H](O)C[C@@]21C [Diflorasone, reference compound]",0.1,No,"71,051.3"
"COS(=O)(=O)[O-].C[N+]1(C)CCC(=C(c2ccccc2)c2ccccc2)CC1 [Diphenmanil (methylsulfate), reference compound]",0.1,No,"78,623.4"
CC1(C)[C@@H](O[C@H]2O[C@H](C(=O)[O-])[C@@H](O)[C@H](O)[C@H]2O[C@@H]2O[C@H](C(=O)[O-])[C@@H](O)[C@H](O)[C@H]2O)CC[C@]2(C)[C@H]3C(=O)C=C4[C@@H]5C[C@@](C)(C(=O)O)CC[C@]5(C)CC[C@@]4(C)[C@]3(C)CC[C@@H]12.[K+].[K+] [Dipotassium glycyrrhizinate],0.1,No,"68,519.8"
"C[C@@H](O)[C@H]1C(=O)N2C(C(=O)O)=C(S[C@@H]3CN[C@H](CNS(N)(=O)=O)C3)[C@H](C)[C@H]12 [Doripenem (monohydrate), reference compound]",0.1,No,"69,608.7"
"CC[C@H]1CN2CCc3cc(OC)c(OC)cc3[C@@H]2C[C@@H]1C[C@H]1NCCc2cc(OC)c(OC)cc21 [Emetine (dihydrochloride hydrate), reference compound]",0.1,No,"75,341.5"
